Patent publication US20070149446A1, “Tamandarin analogs and fragments thereof and methods of making and using” (The Trustees of the University of Pennsylvania Center for …, priority 2003, published 2007)
Like-named read-outs stand apart in the source and are kept apart here.

Tests used:
[1] = amide bond, 17.0 h
[2] = amide bond, 21-membered ring, HATU/NMM, CH3CN, 0.0 °C

## CC(C)C[C@@H]1NC(=O)[C@H](C(C)C)OC(=O)C[C@H](O)[C@@H](C(C)C)NC(=O)[C@@H](NC(=O)OC(C)(C)C)[C@@H](C)OC(=O)[C@H](Cc2ccc3ccccc3c2)N(C)C(=O)[C@@H]2CCCN2C1=O
[1]; from CN[C@@H](Cc1ccc2ccccc2c1)C(=O)O[C@H](C)[C@H](NC(=O)OC(C)(C)C)C(=O)N[C@H](C(C)C)[C@@H](O)CC(=O)O[C@H](C(=O)N[C@@H](CC(C)C)C(=O)N1CCC[C@H]1C(=O)O)C(C)C, HATU, CH3CN, 5.0 mM, 0.0 °C
  ring closure, yield of all isomers: 65%

## COc1ccc(C[C@H]2C(=O)OC[C@H](NC(=O)OC(C)(C)C)C(=O)N[C@H](C(C)C)[C@@H](O)CC(=O)O[C@@H](C(C)C)C(=O)N[C@@H](CC(C)C)C(=O)N3CCC[C@H]3C(=O)N2C)cc1
[1]; from CN[C@@H](Cc1ccc(OC)cc1)C(=O)OC[C@H](NC(=O)OC(C)(C)C)C(=O)N[C@H](C(C)C)[C@@H](O)CC(=O)O[C@H](C(=O)N[C@@H](CC(C)C)C(=O)N1CCC[C@H]1C(=O)O)C(C)C, HATU/NMM, CH3CN, 5.7 mM, 25.0 °C
  ring closure, yield of all isomers: 89%

## COc1ccc(C[C@H]2C(=O)O[C@H](C)[C@H](NC(=O)OC(C)(C)C)C(=O)N[C@H](C(C)C)[C@@H](O)CC(=O)O[C@@H](C(C)C)C(=O)N[C@@H](CC(C)C)C(=O)N(C)[C@@H](C)C(=O)N2C)cc1
[1]; from CN[C@@H](Cc1ccc(OC)cc1)C(=O)O[C@H](C)[C@H](NC(=O)OC(C)(C)C)C(=O)N[C@H](C(C)C)[C@@H](O)CC(=O)O[C@H](C(=O)N[C@@H](CC(C)C)C(=O)N(C)[C@@H](C)C(=O)O)C(C)C, HATU/NMM, CH3CN, 4.8 mM, 25.0 °C
  ring closure, yield of all isomers: 48%

## COc1ccc(C[C@H]2C(=O)O[C@H](C)[C@H](NC(=O)OC(C)(C)C)C(=O)N[C@H](C(C)C)[C@@H](O)CC(=O)O[C@@H](C(C)C)C(=O)N[C@@H](CC(C)C)C(=O)N[C@@H](C)C(=O)N2C)cc1
[1]; from CN[C@@H](Cc1ccc(OC)cc1)C(=O)O[C@H](C)[C@H](NC(=O)OC(C)(C)C)C(=O)N[C@H](C(C)C)[C@@H](O)CC(=O)O[C@H](C(=O)N[C@@H](CC(C)C)C(=O)N[C@@H](C)C(=O)O)C(C)C, HATU/NMM, CH3CN, 4.6 mM, 25.0 °C
  ring closure, yield of all isomers: 60%

## COc1ccc(C[C@H]2C(=O)O[C@H](C)[C@H](NC(=O)OC(C)(C)C)C(=O)N[C@H](C(C)C)[C@@H](O[Si](C(C)C)(C(C)C)C(C)C)CC(=O)O[C@@H](C(C)C)C(=O)N[C@@H](CC(C)C)C(=O)N3CCC[C@H]3C(=O)N2C)cc1
[1]; from COc1ccc(C[C@@H](C(=O)O[C@H](C)[C@H](NC(=O)OC(C)(C)C)C(=O)O)N(C)C(=O)[C@@H]2CCCN2C(=O)[C@H](CC(C)C)NC(=O)[C@@H](OC(=O)C[C@H](O[Si](C(C)C)(C(C)C)C(C)C)[C@H](N)C(C)C)C(C)C)cc1, HATU/DIEA, DMF, 10.0 mM, 25.0 °C, 3 steps
  ring closure, yield of all isomers: 19%

## [2-Naphthylala^5]-Tamandarin B macrocycle
[2]; 5.0 mM
  ring closure, isolated yield: 65%

## [Ala^4]-Tamandarin B macrocycle
[2]; 4.6 mM
  ring closure, isolated yield: 60%

## [N-Me-Ala^4]-Tamandarin B macrocycle
[2]; 4.8 mM
  ring closure, isolated yield: 48%

## [Ser^6]-Tamandarin B macrocycle
[2]; 5.7 mM
  ring closure, isolated yield: 89%
